pEC50: −log10 of the molar value.
test system: Balb/c splenic B cells; assay: B cell activation and proliferation assay (Alamar Blue); type: cell-based; settings: Mus musculus, read-out: B cell proliferation EC50
Description: The assay is performed in a 96 well microtiter plate using Alamar Blue reduction. Balb/c splenic B cells are purified over a Ficoll-Paque™ PLUS gradient followed by magnetic cell separation using a MACS B cell Isolation Kit (Miletenyi). Cells are plated in 90 ul at 50,000 cells/well in B Cell Media (RPMI+10% FBS+Penn/Strep+50 uM bME+5 mM HEPES). A compound disclosed herein is diluted in B Cell Media and added in a 10 ul volume. Plates are incubated for 30 min at 37 C and 5% CO2 (0.2% DMSO final concentration). A 50 ul B cell stimulation cocktail is then added containing either 10 ug/ml LPS or 5 ug/ml F(ab′)2 Donkey anti-mouse IgM plus 2 ng/ml recombinant mouse IL4 in B Cell Media. […] A volume of 15 uL of Alamar Blue reagent is added to each well and plates are incubated for 5 hours at 37 C and 5% CO2. Alamar Blue fluoresce is read at 560Ex/590Em, and IC50 or EC50 values are calculated using GraphPad Prism 5.

| Structure (SMILES) | pEC50 |
| --- | --- |
| CC(C)n1c(Cn2nc(-c3cccc(O)c3)c3c(N)ncnc32)cc2cccc(F)c2c1=O [Compound 133] | > 6.00 |
| Cc1cccc2cc(Cn3nc(-c4cccc(O)c4)c4c(N)ncnc43)n(-c3ccccc3C(C)C)c(=O)c12 [Compound 82] | > 7.00 |
| Cc1ccccc1-n1c(Cn2nc(-c3ccc(O)c(Cl)c3)c3c(N)ncnc32)cc2cccc(C)c2c1=O [Compound 25] | > 6.00 |
| Cc1cccc2cc(Cn3nc(-c4cc(O)cc(F)c4)c4c(N)ncnc43)n(-c3ccccc3C(C)C)c(=O)c12 [Compound 95] | > 7.00 |
| Cc1ccccc1-n1c(Cn2nc(C#CCO)c3c(N)ncnc32)cc2cccc(C)c2c1=O [Compound 11] | > 6.00 |
| CC(C)n1c(Cn2nc(-c3cccc(O)c3)c3c(N)ncnc32)cc2cccc(Cl)c2c1=O [Compound 137] | > 7.00 |
| Cc1ccccc1-n1c(Cn2cnc3c(N)ncnc32)cc2cccc(C)c2c1=O [Compound 5] | > 5.00 |
| Nc1ncnc2c1c(-c1cc(O)cc(F)c1)nn2Cc1cc2cccc(F)c2c(=O)n1-c1ccccc1F [Compound 144] | > 7.00 |
| Cc1ccccc1-n1c(Cn2nc(-c3cnc4[nH]ccc4c3)c3c(N)ncnc32)cc2cccc(C)c2c1=O [Compound 48] | > 7.00 |
| Cc1cccc2cc(Cn3nc(-c4cc(O)cc(F)c4)c4c(N)ncnc43)n(C3CCC3)c(=O)c12 [Compound 115] | > 7.00 |
| Cc1cccnc1-n1c(Cn2nc(Br)c3c(N)ncnc32)cc2cccc(C)c2c1=O [Compound 17] | > 7.00 |
| Cc1cccc2cc(Cn3nc(-c4cccc(O)c4)c4c(N)ncnc43)n(C3CC3)c(=O)c12 [Compound 102] | > 7.00 |
| Cc1cccc2cc(Cn3nc(-c4ccc(Cl)c(O)c4)c4c(N)ncnc43)n(-c3ccccc3F)c(=O)c12 [Compound 24] | > 6.00 |
| Cc1cccnc1-n1c(Cn2nc(-c3cccc(O)c3)c3c(N)ncnc32)cc2cccc(C)c2c1=O [Compound 73] | > 7.00 |
| Cc1cccnc1-n1c(Cn2nc(-c3ccc(Cl)c(O)c3)c3c(N)ncnc32)cc2cccc(C)c2c1=O [Compound 72] | > 7.00 |
| Cc1cccc2cc(Cn3nc(C#C[C@@H](C)O)c4c(N)ncnc43)n(-c3ccccc3F)c(=O)c12 [Compound 28] | > 6.00 |
| COc1ccccc1-n1c(Cn2nc(-c3cc(O)cc(F)c3)c3c(N)ncnc32)cc2cccc(C)c2c1=O [Compound 84] | > 7.00 |
| Cc1ccncc1-n1c(Cn2nc(I)c3c(N)ncnc32)cc2cccc(C)c2c1=O [Compound 78] | > 6.00 |
| COc1ccc(-c2nn(Cc3cc4cccc(C)c4c(=O)n3-c3ccccc3F)c3ncnc(N)c23)cc1OC [Compound 47] | > 6.00 |
| Cc1cccc2cc(Cn3nc(Br)c4c(N)ncnc43)n(-c3ccccc3F)c(=O)c12 [Compound 35] | > 6.00 |
| Cc1cccc2cc(Cn3nc(-c4cccc(O)c4)c4c(N)ncnc43)n(-c3ccccc3)c(=O)c12 [Compound 146] | > 7.00 |
| C=Cc1nn(Cc2cc3cccc(C)c3c(=O)n2-c2ccccc2C)c2ncnc(N)c12 [Compound 180] | > 7.00 |
| Cc1cccc2cc(Cn3nc(I)c4c(N)ncnc43)n(C3CC3)c(=O)c12 [Compound 86] | > 6.00 |
| Cc1ccccc1-n1c(Cn2nc(-c3ccc(F)c(O)c3)c3c(N)ncnc32)cc2cccc(C)c2c1=O [Compound 12] | > 7.00 |
| CC(=O)Nc1nc2ccc(-c3nn(Cc4cc5cccc(Cl)c5c(=O)n4C(C)C)c4ncnc(N)c34)cc2s1 [Compound 157] | > 7.00 |

| Structure (SMILES) | pEC50 |
| --- | --- |
| CCn1c(Cn2nc(-c3ccc4nc(NC(C)=O)sc4c3)c3c(N)ncnc32)cc2cccc(C)c2c1=O [Compound 176] | > 7.00 |
| Cc1cccc2cc(Cn3nc(C#C[C@@H](C)O)c4c(N)ncnc43)n(C3CCCCC3)c(=O)c12 [Compound 112] | > 5.00 |
| Cc1cccc2cc(Cn3nc(C#C[C@@H](C)O)c4c(N)ncnc43)n(C3CC3)c(=O)c12 [Compound 100] | > 6.00 |
| Cc1ccccc1-n1c(Cn2nc(-c3ccc4nc(N)ncc4c3)c3c(N)ncnc32)cc2cccc(C)c2c1=O [Compound 150] | > 7.00 |
| COc1ccc(-c2nn(Cc3cc4cccc(C)c4c(=O)n3-c3ccccc3C)c3ncnc(N)c23)cc1 [Compound 45] | > 6.00 |
| Cc1cccc2cc(Cn3nc(C#C[C@@H](C)O)c4c(N)ncnc43)n(-c3ccccc3Cl)c(=O)c12 [Compound 98] | > 6.00 |
| Cc1ccccc1-n1c(Cn2nc(-c3ccc4nc(N)sc4c3)c3c(N)ncnc32)cc2cccc(C)c2c1=O [Compound 145] | > 6.00 |
| Cc1cccc2cc(Cn3nc(-c4ccc(Cl)c(O)c4)c4c(N)ncnc43)n(C(C)C)c(=O)c12 [Compound 123] | > 7.00 |
| CC(=O)Nc1nc2ccc(-c3nn(Cc4cc5cccc(C)c5c(=O)n4C4CC4)c4ncnc(N)c34)cc2s1 [Compound 155] | > 7.00 |
| Cc1ccccc1-n1c(Cn2nc(-c3ccc(F)cc3)c3c(N)ncnc32)cc2cccc(C)c2c1=O [Compound 27] | > 5.00 |
| Cc1cccc2cc(C(C)Nc3ncnc4[nH]cnc34)n(-c3ccccc3F)c(=O)c12 (centres unmarked) [Compound 167] | > 7.00 |
| Cc1cccc2cc(Cn3nc(I)c4c(N)ncnc43)n(C)c(=O)c12 [Compound 107] | > 6.00 |
| COc1cc(-c2nn(Cc3cc4cccc(C)c4c(=O)n3-c3ccccc3F)c3ncnc(N)c23)ccc1Cl [Compound 22] | > 5.00 |
| Cc1cccc2cc(Cn3nc(-c4cccc(Cl)c4)c4c(N)ncnc43)n(-c3ccccc3F)c(=O)c12 [Compound 38] | < 5.00 |
| Cc1ccccc1-n1c(Cn2nc(-c3ccc4ncnc(N)c4c3)c3c(N)ncnc32)cc2cccc(C)c2c1=O [Compound 152] | > 6.00 |
| COc1ccccc1-n1c(Cn2nc(C#C[C@@H](C)O)c3c(N)ncnc32)cc2cccc(C)c2c1=O [Compound 80] | > 6.00 |
| COc1ccccc1-n1c(Cn2nc(I)c3c(N)ncnc32)cc2cccc(C)c2c1=O [Compound 70] | > 6.00 |
| Cc1ccccc1-n1c(Cn2nc(-c3cccc(O)c3)c3c(N)ncnc32)cc2ccccc2c1=O [Compound 51] | > 6.00 |
| Cc1ccccc1-n1c(Cn2nc(Br)c3c(N)ncnc32)cc2cccc(C)c2c1=O [Compound 19] | > 6.00 |
| CCc1ccccc1-n1c(Cn2nc(I)c3c(N)ncnc32)cc2cccc(C)c2c1=O [Compound 77] | > 6.00 |
| Cc1cccc2cc(Cn3nc(C#CCO)c4c(N)ncnc43)n(-c3ccccc3F)c(=O)c12 [Compound 8] | > 6.00 |
| Cc1ccccc1-n1c(Cn2nc(-c3ccc(O)c(F)c3)c3c(N)ncnc32)cc2cccc(C)c2c1=O [Compound 30] | > 6.00 |
| Nc1ncnc2c1c(-c1cccc(O)c1)nn2Cc1cc2cccc(Cl)c2c(=O)n1C1CC1 [Compound 141] | > 7.00 |
| Cc1cccc2cc(Cn3nc(-c4cccc(O)c4)c4c(N)ncnc43)n(-c3ccccc3O)c(=O)c12 [Compound 81] | > 7.00 |
| Cc1cccnc1-n1c(Cn2nc(-c3cc(O)cc(F)c3)c3c(N)ncnc32)cc2cccc(C)c2c1=O [Compound 16] | > 7.00 |

| Structure (SMILES) | pEC50 |
| --- | --- |
| Cc1cccc2cc(Cn3nc(I)c4c(N)ncnc43)n(-c3ccccc3OCCN3CCOCC3)c(=O)c12 [Compound 103] | > 6.00 |
| CC(C)n1c(Cn2nc(-c3cccc(O)c3)c3c(N)ncnc32)cc2ccccc2c1=O [Compound 135] | > 6.00 |
| CCn1c(Cn2nc(-c3cccc(O)c3)c3c(N)ncnc32)cc2cccc(C)c2c1=O [Compound 126] | > 7.00 |
| CCc1ccccc1-n1c(Cn2nc(C#C[C@@H](C)O)c3c(N)ncnc32)cc2cccc(C)c2c1=O [Compound 99] | > 7.00 |
| Cc1cccc2cc(Cn3nc(I)c4c(N)ncnc43)n(-c3ccccc3C(C)C)c(=O)c12 [Compound 75] | > 7.00 |
| CCc1ccccc1-n1c(Cn2nc(-c3cccc(O)c3)c3c(N)ncnc32)cc2cccc(C)c2c1=O [Compound 88] | > 7.00 |
| Cc1cccc2cc(Cn3nc(Cl)c4c(N)ncnc43)n(-c3ccccc3F)c(=O)c12 [Compound 34] | > 6.00 |
| CC(=O)Nc1nc2ccc(-c3nn(Cc4cc5cccc(Cl)c5c(=O)n4C4CC4)c4ncnc(N)c34)cc2s1 [Compound 156] | > 7.00 |
| Cc1cccc2cc(Cn3nc(-c4cc(O)cc(F)c4)c4c(N)ncnc43)n(C3CCOCC3)c(=O)c12 [Compound 128] | > 7.00 |
| Cc1cccc2cc(Cn3nc(-c4cc(O)cc(F)c4)c4c(N)ncnc43)n(C3CCCCC3)c(=O)c12 [Compound 110] | > 6.00 |
| Cc1cccc2cc(Cn3nc(-c4cc(O)cc(F)c4)c4c(N)ncnc43)n(-c3ccccc3OCCN3CCOCC3)c(=O)c12 [Compound 108] | > 7.00 |
| Cc1cccc2cc(Cn3nc(-c4ccc(O)c(Cl)c4)c4c(N)ncnc43)n(-c3ccccc3F)c(=O)c12 [Compound 26] | > 5.00 |
| Cc1cccc2cc(Cn3nc(-c4ccc(F)c(O)c4)c4c(N)ncnc43)n(C(C)C)c(=O)c12 [Compound 67] | > 7.00 |
| Cc1cccc2cc(Cn3nc(-c4cn[nH]c4)c4c(N)ncnc43)n(-c3cccc(F)c3)c(=O)c12 [Compound 166] | > 7.00 |
| Cc1ccccc1-n1c(Cn2nc(C#C[C@@H](C)O)c3c(N)ncnc32)cc2cccc(F)c2c1=O [Compound 43] | > 5.00 |
| Cc1cccnc1-n1c(Cn2nc(-c3ccc(F)c(O)c3)c3c(N)ncnc32)cc2cccc(C)c2c1=O [Compound 68] | > 7.00 |
| Cc1ccccc1-n1c(Cn2nc(-c3ccc(F)c(O)c3)c3c(N)ncnc32)cc2ccccc2c1=O [Compound 54] | > 7.00 |
| Cc1cccnc1-n1c(Cn2nc(C#C[C@@H](C)O)c3c(N)ncnc32)cc2cccc(C)c2c1=O [Compound 69] | > 6.00 |
| CC(=O)Nc1nc2ccc(-c3nn(Cc4cc5cccc(C)c5c(=O)n4C4CCC4)c4ncnc(N)c34)cc2s1 [Compound 159] | > 7.00 |
| Cc1cccc2cc(Cn3nc(-c4cn[nH]c4)c4c(N)ncnc43)n(-c3ccccc3F)c(=O)c12 [Compound 161] | > 6.00 |
| Cc1cccnc1-n1c(Cn2nc(I)c3c(N)ncnc32)cc2cccc(C)c2c1=O [Compound 15] | > 6.00 |
| CC(C)n1c(Cn2nc(-c3cc(O)cc(F)c3)c3c(N)ncnc32)cc2cccc(Cl)c2c1=O [Compound 138] | > 7.00 |
| CC(=O)Nc1nc2ccc(-c3nn(Cc4cc5cccc(C)c5c(=O)n4-c4ccccc4)c4ncnc(N)c34)cc2s1 [Compound 177] | > 7.00 |
| Cc1ccccc1-n1c(Cn2nc(-c3cccc(Cl)c3)c3c(N)ncnc32)cc2cccc(C)c2c1=O [Compound 39] | > 5.00 |
